Laboratory results from patent US20260158177A1, “COMPOUNDS SPECIFIC TO GRANZYME B AND USES THEREOF” (CYTOSITE BIOPHARMA INC., priority 2021, published 2026).
Numbered stars: 1 amine (or outer) side, 2 acyl side, 3 side chain; on linkers, the order of the positions; unused ones are H or OH. Square brackets hold non-standard residues; d marks the D form. Peptide text beside a SMILES is read from it. * marks the point of attachment. X2 = O=C1CN2CCN(CCN(CC3CCN(CC(=O)*)CC3)CC2)CC(=O)[O][Al]([F])[O]1; NOTA(AlF) = O=C1CN2CCN(CCN(CC(=O)*)CC2)CC(=O)[O][Al]([F])[O]1; Haic = O=C1[C@@H](N[*:1])CCc2cccc3c2N1[C@H](C(=O)[*:2])C3; NH(5-HO-2-oxo-oxolan-4-yl) = O=C1CC(N*)C(O)O1; X1 = O=C(CN1CCN([*:1])CC1)[*:2]

target: T1, human granzyme B (Homo sapiens, UniProt P10144); assay: Competitive binding assay of human granzyme B with Compound ^18F-21-Al radioligand; conditions: competition with 20 nM Compound ^18F-21-Al, human lymphocyte GZB, 37° C., 90 minutes
T1 construct: from tissue; host or cells: human lymphocytes
T1 sequence (P10144 21-247): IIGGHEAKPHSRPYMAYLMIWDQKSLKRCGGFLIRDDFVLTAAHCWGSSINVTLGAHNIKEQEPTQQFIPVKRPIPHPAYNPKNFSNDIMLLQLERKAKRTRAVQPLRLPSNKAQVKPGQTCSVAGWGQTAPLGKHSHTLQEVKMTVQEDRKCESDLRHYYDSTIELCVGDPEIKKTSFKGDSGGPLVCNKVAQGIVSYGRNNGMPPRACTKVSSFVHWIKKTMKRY
Method: Purpose: To perform competitive binding assays with human granzyme B using Compound ^18F-21-Al to determine IC50 values of potential granzyme B ligands
Initial Plate Preparation (including total binding and non-specific binding): • 1. 78 μL of reaction buffer, as described above, is added to each well in a 96 well plate • 2. For wells used to examine total binding (defined as the binding of the radioligand in the absence of competitors), 2 μL of DMSO is added to give 1% final DMSO concentration for all wells • 3. For wells used to examine non-specific binding (defined as the binding of the radioligand in the presence of 10 μM 21), 2 μL of 1 mM Compound 21 is added to give a final concentration of 10 μM
• 1. Granzyme B (GZB, human lymphocyte) is diluted to 0.5 μg/mL using reaction buffer as described above • 2. 100 μL of 0.5 μg/mL diluted human GzB is added to each well, giving 50 ng per well and a final concentration of 0.25 μg/mL
• 1. DMSO or water is added to the respective compound vial to make 1 mM compound stock solution • 2. 1 mM compound stock solution is serially diluted by ½ log (3.16 fold) by adding 18.5 μL of compound stock to 40 μL of DMSO, mixing by pipetting up and down, and transferring 18.5 μL of the mixture to 40 μL of DMSO. This process is repeated to create 10 dilution points for test compounds. • 3. For wells used to examine ligand binding competition, 2 μL of each dilution is dispensed into the 96 well plates prepared as described above, giving a further dilution of 1/100.
• 1. 200 nM of Compound ^18F-21-Al (10× radioligand stock) is prepared in reaction buffer, aiming for approximately 2 million CPM per 20 μL of solution (input). • 2. 20 μL of radioligand stock is dispensed into each well to give a final concentration per well of 20 nM.
• 1. All 96 wells should have a final volume of 200 μL, and the assay plates are incubated at 37° C. for 90 minutes. • 2. All samples from the assay plates are transferred to MultiScreenHTS FB plates that have been presoaked in PBS buffer, pH 7.4, and filtered using a vacuum manifold. An additional 150 μL of PBS buffer is added to each well in the assay plates and combined to ensure transfer of any remaining samples • 3. MultiScreenHTS FB plates are washed 3× with 150 μL of PBS buffer. • 4. All filters are separated and transferred to individual tubes using Multiscreen punch tips and the Millipore multiple punch apparatus • 5. The sample set is analyzed using the Wizard 2480 automatic gamma-counter [Perkin Elmer] through a [^18F]-specific profile. Values are reported as decay-corrected counts per minute (CPM). • 6. Resulting CPM values are normalized and converted to % inhibition by the following equation:
[formula] • *the total bound fraction is typically less than 10% of the added radioligand under such assay conditions. • Resulting % inhibition values were plotted using the software GraphPad Prism 8.4.3 using the One site—Fit log IC50 equation to determine the IC50 value for each ligand.
[formula] • Y=% Inhibition • X=Log concentration of the cold competing ligand (M) • A=minimum Y (0%) • B=maximum Y (100%) • Log IC50=Log concentration of cold competing ligand (M) at half-way between minimum and maximum Y

Q: How did the IC50 turn out when CC[C@H](C)[C@H](NC(=O)CCNC(=O)CCNC(=O)[C@@H](CCC(=O)O)NC(=O)CN1CCC(CN2CCN3CCN(CC2)CC(=O)[O][Al]([F])[O]C(=O)C3)CC1)C(=O)N[C@H]1CCc2cccc3c2N(C1=O)[C@H](C(=O)NC1CC(=O)OC1O)C3 (stereo partly drawn) [Compound 1-Al, 2,2′-(7-((1-((4R,15S,16S)-4-(2-carboxyethyl)-15-(((3S,6S)-6-((2-hydroxy-5-oxotetrahydrofuran-3-yl)carbamoyl)-4-oxo-1,2,3,4,6,7-hexahydroazepino[3,2,1-hi]indol-3-yl)carbamoyl)-16-methyl-2,5,9,13-tetraoxo-3,6,10,14-tetraazaoctadecyl)piperidin-4-yl)methyl)-1,4,7-triazonane-1,4-diyl)diacetic acid, aluminum fluoride complex (1:1)] was run?
A: 5.7 nM

Q: With CC[C@H](C)[C@H](NC(=O)CNC(=O)CNC(=O)[C@H](CCC(=O)O)NC(=O)CN1CCC(CN2CCN3CCN(CC2)CC(=O)[O][Al]([F])[O]C(=O)C3)CC1)C(=O)N[C@H]1CCc2cccc3c2N(C1=O)[C@H](C(=O)NC1CC(=O)OC1O)C3 (stereo partly drawn) [Compound 2-Al, 2,2′-(7-((1-((4S,13S,14S)-4-(2-carboxyethyl)-13-(((3S,6S)-6-((2-hydroxy-5-oxotetrahydrofuran-3-yl)carbamoyl)-4-oxo-1,2,3,4,6,7-hexahydroazepino[3,2,1-hi]indol-3-yl)carbamoyl)-14-methyl-2,5,8,11-tetraoxo-3,6,9,12-tetraazahexadecyl)piperidin-4-yl)methyl)-1,4,7-triazonane-1,4-diyl)diacetic acid aluminum fluoride complex (1:1)] (X2-EGGI[Haic]-{NH(5-HO-2-oxo-oxolan-4-yl)}) as the compound, how does the IC50 read?
A: 7.5 nM

Q: For CC[C@H](C)[C@H](NC(=O)CCNC(=O)CN(CC(=O)O)C(=O)CCNC(=O)CN1CCC(CN2CCN3CCN(CC2)CC(=O)[O][Al]([F])[O]C(=O)C3)CC1)C(=O)N[C@H]1CCc2cccc3c2N(C1=O)[C@H](C(=O)NC1CC(=O)OC1O)C3 (stereo partly drawn) [Compound 3-Al, 2,2′-(7-((1-((15S,16S)-7-(carboxymethyl)-15-(((3S,6S)-6-((2-hydroxy-5-oxotetrahydrofuran-3-yl)carbamoyl)-4-oxo-1,2,3,4,6,7-hexahydroazepino[3,2,1-hi]indol-3-yl)carbamoyl)-16-methyl-2,6,9,13-tetraoxo-3,7,10,14-tetraazaoctadecyl)piperidin-4-yl)methyl)-1,4,7-triazonane-1,4-diyl)diacetic acid, aluminum fluoride complex (1:1)], which IC50 is on record?
A: 4.7 nM

Q: How did the IC50 turn out when CC[C@H](C)[C@H](NC(=O)COCCNC(=O)[C@@H](CCC(=O)O)NC(=O)[C@@H](CCC(=O)O)NC(=O)CN1CCC(CN2CCN3CCN(CC2)CC(=O)[O][Al]([F])[O]C(=O)C3)CC1)C(=O)N[C@H]1CCc2cccc3c2N(C1=O)[C@H](C(=O)NC1CC(=O)OC1O)C3 (stereo partly drawn) [Compound 4-Al, 2,2′-(7-((1-((4R,7R,16S,17S)-4,7-bis(2-carboxyethyl)-16-(((3S,6S)-6-((2-hydroxy-5-oxotetrahydrofuran-3-yl)carbamoyl)-4-oxo-1,2,3,4,6,7-hexahydroazepino[3,2,1-hi]indol-3-yl)carbamoyl)-17-methyl-2,5,8,14-tetraoxo-12-oxa-3,6,9,15-tetraazanonadecyl)piperidin-4-yl)methyl)-1,4,7-triazonane-1,4-diyl)diacetic acid, aluminum fluoride complex (1:1)] was run?
A: 2.8 nM

Q: How did the IC50 turn out when CC[C@H](C)[C@H](NC(=O)CCNC(=O)CCNC(=O)CN(CC(=O)O)C(=O)CN1CCC(CN2CCN3CCN(CC2)CC(=O)[O][Al]([F])[O]C(=O)C3)CC1)C(=O)N[C@H]1CCc2cccc3c2N(C1=O)[C@H](C(=O)NC1CC(=O)OC1O)C3 (stereo partly drawn) [Compound 5-Al, 2,2′-(7-((1-((15S,16S)-3-(carboxymethyl)-15-(((3S,6S)-6-((2-hydroxy-5-oxotetrahydrofuran-3-yl)carbamoyl)-4-oxo-1,2,3,4,6,7-hexahydroazepino[3,2,1-hi]indol-3-yl)carbamoyl)-16-methyl-2,5,9,13-tetraoxo-3,6,10,14-tetraazaoctadecyl)piperidin-4-yl)methyl)-1,4,7-triazonane-1,4-diyl)diacetic acid, aluminum fluoride complex (1:1)] was run?
A: 5.7 nM

Q: CC[C@H](C)[C@H](NC(=O)CCNC(=O)CC[C@H](NC(=O)CN1CCC(CN2CCN3CCN(CC2)CC(=O)[O][Al]([F])[O]C(=O)C3)CC1)C(=O)O)C(=O)N[C@H]1CCc2cccc3c2N(C1=O)[C@H](C(=O)NC1CC(=O)OC1O)C3 (stereo partly drawn) [Compound 6-Al, 2,2′-(7-((1-(2-(((1S)-1-carboxy-4-((3-(((2S,3S)-1-(((3S,6S)-6-((2-hydroxy-5-oxotetrahydrofuran-3-yl)carbamoyl)-4-oxo-1,2,3,4,6,7-hexahydroazepino[3,2,1-hi]indol-3-yl)amino)-3-methyl-1-oxopentan-2-yl)amino)-3-oxopropyl)amino)-4-oxobutyl)amino)-2-oxoethyl)piperidin-4-yl)methyl)-1,4,7-triazonane-1,4-diyl)diacetic acid, aluminum fluoride complex (1:1)] was tested. Which IC50 did it give?
A: 4.5 nM

Q: For CC[C@H](C)[C@H](NC(=O)CCNC(=O)[C@@H](CCC(=O)O)NC(=O)CCNC(=O)CN1CCC(CN2CCN3CCN(CC2)CC(=O)[O][Al]([F])[O]C(=O)C3)CC1)C(=O)N[C@H]1CCc2cccc3c2N(C1=O)[C@H](C(=O)NC1CC(=O)OC1O)C3 (stereo partly drawn) [Compound 7-Al, 2,2′-(7-((1-((8R,15S,16S)-8-(2-carboxyethyl)-15-(((3S,6S)-6-((2-hydroxy-5-oxotetrahydrofuran-3-yl)carbamoyl)-4-oxo-1,2,3,4,6,7-hexahydroazepino[3,2,1-hi]indol-3-yl)carbamoyl)-16-methyl-2,6,9,13-tetraoxo-3,7,10,14-tetraazaoctadecyl)piperidin-4-yl)methyl)-1,4,7-triazonane-1,4-diyl)diacetic acid, aluminum fluoride complex (1:1)], which IC50 is on record?
A: 6.7 nM

Q: How did the IC50 turn out when CC[C@H](C)[C@H](NC(=O)CNC(=O)CNC(=O)[C@H](CCC(=O)O)NC(=O)CN1CCN(C(=O)CN2CCN3CCN(CC2)CC(=O)[O][Al]([F])[O]C(=O)C3)CC1)C(=O)N[C@H]1CCc2cccc3c2N(C1=O)[C@H](C(=O)NC1CC(=O)OC1O)C3 (stereo partly drawn) [Compound 8-Al, 2,2′-(7-(2-(4-((4S,13S,14S)-4-(2-carboxyethyl)-13-(((3S,6S)-6-((2-hydroxy-5-oxotetrahydrofuran-3-yl)carbamoyl)-4-oxo-1,2,3,4,6,7-hexahydroazepino[3,2,1-hi]indol-3-yl)carbamoyl)-14-methyl-2,5,8,11-tetraoxo-3,6,9,12-tetraazahexadecyl)piperazin-1-yl)-2-oxoethyl)-1,4,7-triazonane-1,4-diyl)diacetic acid, aluminum fluoride complex (1:1)] ({NOTA(AlF)}-[X1]EGGI[Haic]-{NH(5-HO-2-oxo-oxolan-4-yl)}) was run?
A: 6.5 nM

Q: Which IC50 does the source give for CC[C@H](C)[C@H](NC(=O)COCCNC(=O)[C@@H](CCC(=O)O)NC(=O)CN1CCN(C(=O)CN2CCN3CCN(CC2)CC(=O)[O][Al]([F])[O]C(=O)C3)CC1)C(=O)N[C@H]1CCc2cccc3c2N(C1=O)[C@H](C(=O)NC1CC(=O)OC1O)C3 (stereo partly drawn) [Compound 9-Al, 2,2′-(7-(2-(4-((4R,13S,14S)-4-(2-carboxyethyl)-13-(((3S,6S)-6-((2-hydroxy-5-oxotetrahydrofuran-3-yl)carbamoyl)-4-oxo-1,2,3,4,6,7-hexahydroazepino[3,2,1-hi]indol-3-yl)carbamoyl)-14-methyl-2,5,11-trioxo-9-oxa-3,6,12-triazahexadecyl)piperazin-1-yl)-2-oxoethyl)-1,4,7-triazonane-1,4-diyl)diacetic acid, aluminum fluoride complex (1:1)] here?
A: 3.5 ± 0.78 nM
